# Measured values taken from patent US20260151379A1, “SALT TYPE AND CRYSTAL FORM OF COMPLEMENT FACTOR B INHIBITOR, AND PREPARATION METHOD THEREFOR AND APPLICATION THEREOF” (SHANGHAI MEIYUE BIOTECH DEVELOPMENT CO., LTD., priority 2022, published 2026).
# Where “and” joins values, the source holds several entries; their conditions need not be identical. Identical values can stand only once. Counter-ions that a name gives are not always drawn.
# Legend:
# Type in all cases: physicochemical
# [1] = Open storage of crystal form A under acceleration conditions (Example 7); settings: 40° C./75% RH, 72 h
# Description: The crystal form B is a monohydrate of the monohydrochloride of the compound of formula I.
# [2] = Stability investigation of crystal form C of monohydrochloride, 1 month (Example 11)
# Experimental: […] The stability of the crystal form was investigated.
# Detection method for related substances of the stability sample: about 6 mg of the sample was weighed out and added to a 40 mL clean glass bottle; 10 mL of 50% aqueous acetonitrile solution was added; the sample was dissolved completely by ultrasonication; and 10 μL of the sample was injected for the test of the related substances, as shown in Table 15. The XRPD pattern is shown in FIG. 18, wherein HCl-salt Form 3-initial (hereinafter referred to as initial) represents the XRPD pattern of the crystal form C prepared in Example 8.
# [3] = Solubility tests of compound of formula I, mixture of crystal forms A and B, and crystal form C at 37° C. (Example 13)
# Experimental: An appropriate amount of a test sample was weighed out and added to a vial; 3 mL of a medium (water, SGF, FaSSIF, FeSSIF, or the like) was added; the mixture was stirred at 37° C.; […]; centrifugation was performed at 12000 rpm for 10 min; the supernatant was diluted with 50% aqueous acetonitrile solution to an appropriate multiple; and the concentration of the supernatant was determined.
# Control and linearity: 10 mg of the compound of formula I was weighed out and added to a 50 mL volumetric flask, 50% aqueous acetonitrile solution was added for dissolution, and the mixture was diluted to volume. Two parts were prepared in parallel. The control was taken and diluted with 50% aqueous acetonitrile solution to 100 μg/mL, 50 μg/mL, and 10 μg/mL, 5 μL of the sample was injected, and a standard curve was plotted.
# [4] = Effect of high temperature and high humidity on crystal form C (Example 12); settings: open, 60° C., 80% RH and 92.5% RH, 1 day and 3 days
# Description: The sample was separately collected on 1d and 3d for XRPD testing.
# [5] = Stability tests of compound of formula I and its monohydrochloride, phosphate and maleate (Example 4); settings: for Stability (conclusion in words from Table 7): 40° C./75% RH closed/open and 60° C. closed, 2 wks
# Experimental: The stability of the compound of formula I, the monohydrochloride of the compound of formula I in Example 1, the phosphate of the compound of formula I in Example 2, and the maleate of the compound of formula I in Example 3 were investigated.
# Stability investigation conditions: 40° C./75% RH-closed, 40° C./75% RH-open, and 60° C.-closed; stability investigation content: changes in related substances and crystal forms.
# Detection of related substances: about 6-7 mg of a sample was separately weighed out and added to a 10 mL volumetric flask; 50% aqueous acetonitrile solution was added for dissolution; the mixture was diluted to volume; and 10 μL of the sample was injected.
# [6] = Solubility tests in water, SGF, FaSSIF, FeSSIF at 37° C. (Example 5)
# Experimental: Experimental procedures: 30 mg (in water) or 15 mg of a sample was weighed out and added to a 4 mL vial; 3 mL of a medium to be tested (water, SGF, FaSSIF, or FeSSIF) was added; the mixture was continuously stirred at 37° C.; 0.5 mL of the sample was separately collected at 1 h and 24 h; centrifugation was performed at 12000 rpm for 10 min; the supernatant was diluted with 50% aqueous acetonitrile solution to an appropriate multiple; and the concentration of the supernatant was determined.
# Control and linearity: 10 mg of the compound of formula I was weighed out and added to a 50 mL volumetric flask, 50% aqueous acetonitrile solution was added for dissolution, and the mixture was diluted to volume. Two parts were prepared in parallel. The control of the compound of formula I was taken and diluted with 50% aqueous acetonitrile solution to 100 μg/mL, 50 μg/mL, and 10 μg/mL, 5 μL of the sample was injected, and a standard curve was plotted.
# [7] = Initial, listed as Crystal form C of monohydrochloride of compound of formula I
# [8] = pH 6.8 (adjusted with sodium hydroxide solution), 37° C.
# [9] = pH 7.4 (adjusted with sodium hydroxide solution), 37° C.
# [10] = FaSSIF, listed as Compound of formula I Hydrochloride
# [11] = FeSSIF, listed as Compound of formula I Hydrochloride
# [12] = SGF, listed as Compound of formula I Hydrochloride
# [13] = Water, listed as Compound of formula I Hydrochloride
compound,measurement,setting,value
COc1cc(C)c2[nH]ccc2c1CN1CCC(OCC2CC2)CC1c1ccc(C(=O)O)cc1.Cl (stereo not shown) [Crystal form A],Crystal form after open storage,[1],transformed into crystal form B
COc1cc(C)c2[nH]ccc2c1CN1CCC(OCC2CC2)CC1c1ccc(C(=O)O)cc1.Cl (stereo not shown) [Crystal form C],Chemical stability (in words),[2]; 40° C./75% RH and 60° C. for 1 month,good chemical stability
same,Maximum single impurity %,[2]; 40° C./75% RH-closed-1 M,0.29%
same,Purity %,[2]; 40° C./75% RH-closed-1 M,99.58%
same,Total impurity %,[2]; 40° C./75% RH-closed-1 M,0.42%
same,Maximum single impurity %,[2]; 40° C.75% RH-open-1 M,0.27%
same,Purity %,[2]; 40° C.75% RH-open-1 M,99.60%
same,Total impurity %,[2]; 40° C.75% RH-open-1 M,0.40%
same,Maximum single impurity %,[2]; 60° C.-closed-1 M,0.32%
same,Purity %,[2]; 60° C.-closed-1 M,99.56%
same,Total impurity %,[2]; 60° C.-closed-1 M,0.44%
same,Appearance,[2]; Initial,White powder
same,Maximum single impurity %,[2]; [7],0.65% and 0.96%
same,Purity %,[2]; [7],99.17% and 98.88%
same,Total impurity %,[2]; [7],0.83% and 1.12%
same,Crystal form by XRPD after storage (FIG. 18),"[2]; acceleration and high temperature conditions, 1 month",not changed
same,Final pH,"[3]; FaSSIF, 37° C.",3.27
same,solubility at 1 h,"[3]; FaSSIF, 37° C.",1160 µg/mL
same,solubility at 24 h,"[3]; FaSSIF, 37° C.",880 µg/mL
same,Final pH,"[3]; FessIF, 37° C.",4.83
same,solubility at 1 h,"[3]; FessIF, 37° C.",640 µg/mL
same,solubility at 24 h,"[3]; FessIF, 37° C.",420 µg/mL
same,Final pH,"[3]; SGF, 37° C.",1.26
same,solubility at 1 h,"[3]; SGF, 37° C.",940 µg/mL
same,solubility at 24 h,"[3]; SGF, 37° C.",790 µg/mL
same,Final pH,"[3]; Water, 37° C.",2.49
same,Solubility in water compared to mixture of crystal forms A and B (in words),"[3]; Water, 37° C.",reduced solubility in water compared to the mixture of crystal forms A and B
same,solubility at 1 h,"[3]; Water, 37° C.",8320 µg/mL
same,solubility at 24 h,"[3]; Water, 37° C.",7540 µg/mL
same,Solubility at 1 h (mg/mL),[3]; [8],0.56(1 h) mg/mL
same,Solubility (mg/mL) (48 h),[3]; [8],0.21(48 h) mg/mL
same,Final pH,"[3]; pH 6.8, 37° C., 1 h line",6.65
same,Final pH,"[3]; pH 6.8, 37° C., 48 h line",6.82
same,Solubility at 1 h (mg/mL),[3]; [9],0.45(1 h) mg/mL
same,Solubility (mg/mL) (48 h),[3]; [9],0.24(48 h) mg/mL
same,Final pH,"[3]; pH 7.4, 37° C., 1 h line",7.23
same,Final pH,"[3]; pH 7.4, 37° C., 48 h line",7.42
same,Crystal form by XRPD after exposure (FIGS. 19 and 20),[4],not changed
COc1cc(C)c2[nH]ccc2c1CN1CC[C@H](OCC2CC2)C[C@H]1c1ccc(C(=O)O)cc1 [Compound of formula I Monohydrochloride],Stability (conclusion in words from Table 7),[5]; listed as monohydrochloride,more stable
same,Appearance,[5]; 40° C./75% RH-closed-2 wks,White powder
same,Maximum single impurity %,[5]; 40° C./75% RH-closed-2 wks,0.11%
same,Purity %,[5]; 40° C./75% RH-closed-2 wks,99.57%
same,Total impurity %,[5]; 40° C./75% RH-closed-2 wks,0.43%
same,Appearance,[5]; 40° C./75% RH-open-2 wks,White powder
same,Maximum single impurity %,[5]; 40° C./75% RH-open-2 wks,0.10%
same,Purity %,[5]; 40° C./75% RH-open-2 wks,99.59%
same,Total impurity %,[5]; 40° C./75% RH-open-2 wks,0.41%
same,Appearance,[5]; 60° C.-closed-2 wks,White powder
same,Maximum single impurity %,[5]; 60° C.-closed-2 wks,0.13%
same,Purity %,[5]; 60° C.-closed-2 wks,99.59%
same,Total impurity %,[5]; 60° C.-closed-2 wks,0.41%
same,Appearance,[5]; Initial,White powder
same,Maximum single impurity %,[5]; Initial,0.14%
same,Purity %,[5]; Initial,99.59%
same,Total impurity %,[5]; Initial,0.41%
same,Final pH,[6]; [10],3.83
same,Solubility (mg/mL) (1 h),[6]; [10],0.64 mg/mL
same,Solubility (mg/mL) (24 h),[6]; [10],0.39 mg/mL
same,Final pH,[6]; [11],4.85
same,Solubility (mg/mL) (1 h),[6]; [11],0.74 mg/mL
same,Solubility (mg/mL) (24 h),[6]; [11],0.44 mg/mL
same,Final pH,[6]; [12],1.52
same,Solubility (mg/mL) (1 h),[6]; [12],5.90 mg/mL
same,Solubility (mg/mL) (24 h),[6]; [12],5.97 mg/mL
same,Final pH,[6]; [13],2.49
same,Solubility (mg/mL) (1 h),[6]; [13],11.74 mg/mL
same,Solubility (mg/mL) (24 h),[6]; [13],11.14 mg/mL
COc1cc(C)c2[nH]ccc2c1CN1CCC(OCC2CC2)CC1c1ccc(C(=O)O)cc1.O=C(O)C=CC(=O)O (stereo not shown) [Compound of formula I Maleate],Stability (conclusion in words from Table 7),[5],stable
same,Appearance,[5]; 40° C./75% RH-closed-2 wks,White powder
same,Maximum single impurity %,[5]; 40° C./75% RH-closed-2 wks,0.08%
same,Purity %,[5]; 40° C./75% RH-closed-2 wks,99.78%
same,Total impurity %,[5]; 40° C./75% RH-closed-2 wks,0.22%
same,Maximum single impurity %,[5]; 40° C./75% RH-open-2 wks,0.09%
same,Purity %,[5]; 40° C./75% RH-open-2 wks,99.64%
same,Total impurity %,[5]; 40° C./75% RH-open-2 wks,0.36%
same,Appearance,[5]; 60° C.-closed-2 wks,White powder
same,Maximum single impurity %,[5]; 60° C.-closed-2 wks,0.09%
same,Purity %,[5]; 60° C.-closed-2 wks,99.69%
same,Total impurity %,[5]; 60° C.-closed-2 wks,0.31%
same,Appearance,[5]; Initial,White powder
same,Maximum single impurity %,[5]; Initial,0.08%
same,Purity %,[5]; Initial,99.80%
same,Total impurity %,[5]; Initial,0.20%
COc1cc(C)c2[nH]ccc2c1CN1CCC(OCC2CC2)CC1c1ccc(C(=O)O)cc1.O=P(O)(O)O (stereo not shown) [Compound of formula I Phosphate],Stability (conclusion in words from Table 7),[5],stable
same,Appearance,[5]; 40° C./75% RH-closed-2 wks,White powder
same,Maximum single impurity %,[5]; 40° C./75% RH-closed-2 wks,0.09%
same,Purity %,[5]; 40° C./75% RH-closed-2 wks,99.63%
same,Total impurity %,[5]; 40° C./75% RH-closed-2 wks,0.37%
same,Appearance,[5]; 40° C./75% RH-open-2 wks,White powder
same,Maximum single impurity %,[5]; 40° C./75% RH-open-2 wks,0.09%
same,Purity %,[5]; 40° C./75% RH-open-2 wks,99.64%
same,Total impurity %,[5]; 40° C./75% RH-open-2 wks,0.36%
same,Appearance,[5]; 60° C.-closed-2 wks,White powder
same,Maximum single impurity %,[5]; 60° C.-closed-2 wks,0.08%
same,Purity %,[5]; 60° C.-closed-2 wks,99.62%
same,Total impurity %,[5]; 60° C.-closed-2 wks,0.38%
same,Appearance,[5]; Initial,White powder
same,Maximum single impurity %,[5]; Initial,0.07%
same,Purity %,[5]; Initial,99.75%
same,Total impurity %,[5]; Initial,0.25%
same,Final pH,[6]; FaSSIF,4.76
same,Solubility (mg/mL) (1 h),[6]; FaSSIF,0.45 mg/mL
same,Solubility (mg/mL) (24 h),[6]; FaSSIF,0.27 mg/mL
same,Final pH,[6]; FessIF,4.84
same,Solubility (mg/mL) (1 h),[6]; FessIF,0.64 mg/mL
same,Solubility (mg/mL) (24 h),[6]; FessIF,0.40 mg/mL
same,Final pH,[6]; SGF,1.61
same,Solubility (mg/mL) (1 h),[6]; SGF,5.35 mg/mL
same,Solubility (mg/mL) (24 h),[6]; SGF,5.55 mg/mL
same,Final pH,[6]; Water,2.53
same,Solubility (mg/mL) (1 h),[6]; Water,8.07 mg/mL
same,Solubility (mg/mL) (24 h),[6]; Water,6.24 mg/mL
